Reference: paper PMC12118597 (Science Advances, 2025)

target: T1, SARS-CoV-2 NSP3 macrodomain (Mac1) (Severe acute respiratory syndrome coronavirus 2, UniProt P0DTD1); assay: biochemical; format: binding; settings: SARS CoV-2 macrodomain HTRF assay, single dose concentration 200 μM; read-out: Average % competition

SMILES | inhibition at 200 µM [%]
OCC1COCCN1c1ncnc2[nH]ccc12 (stereo not shown) [AVI-3717] | 62
O=C(O)C(F)(F)F.OC[C@H]1CC2(CN1c1ncnc3[nH]ccc13)OCCO2 [AVI-3702] | 17
CC1(C)CCC(CO)N(c2ncnc3[nH]ccc23)C1 (stereo not shown) [AVI-3726] | 76
OCC1CC2(CCC2)CN1c1ncnc2[nH]ccc12 (stereo not shown) [AVI-3728] | 79
OCC1CC2(CCCCC2)CN1c1ncnc2[nH]ccc12 (stereo not shown) [AVI-3727] | 67
OC(c1ccccc1)C1CCCN1c1ncnc2[nH]ccc12 (stereo not shown) [AVI-3652] | 35

same assay, conditions: Single dose, concentration 200 μM

SMILES | Average % competition [%]
OCC(Nc1ncnc2[nH]ccc12)C1CCc2ccccc21 (stereo not shown) [AVI-3693] | 78
OCC(Cc1ccoc1)Nc1ncnc2[nH]ccc12 (stereo not shown) [AVI-3705] | 64
OCC(Cc1ccc(I)cc1)Nc1ncnc2[nH]ccc12 (stereo not shown) [AVI-3686] | <10
OCC(CC1OCCO1)Nc1ncnc2[nH]ccc12 (stereo not shown) [AVI-3658] | 11
CCC(Nc1ncnc2[nH]ccc12)C(C)(C)O (stereo not shown) [AVI-3667] | 51
OCC(CC1CCC1)Nc1ncnc2[nH]ccc12 (stereo not shown) [AVI-3641] | 32
OCC(CC(F)(F)F)Nc1ncnc2[nH]ccc12 (stereo not shown) [AVI-3637] | 50
O=C(O)C(F)(F)F.OCC1(Nc2ncnc3[nH]ccc23)CC1 [AVI-3688] | 72
CN(C)CC(CO)Nc1ncnc2[nH]ccc12 (stereo not shown) [AVI-3671] | <10
OCC(CC1CCCO1)Nc1ncnc2[nH]ccc12 (stereo not shown) [AVI-3660] | 18
OCC(Cc1cncs1)Nc1ncnc2[nH]ccc12 (stereo not shown) [AVI-3703] | 28

same assay, conditions: compound at 200 μM; mean of three to four technical replicates; read-out: % competition at 200 μM (preliminary HTRF screen)

SMILES | inhibition at 200 µM [%]
OCC(Nc1ncnc2[nH]ccc12)C1CCc2ccccc21 (stereo not shown) [AVI-3693] | 78
OCC1COCCN1c1ncnc2[nH]ccc12 (stereo not shown) [AVI-3717] | 62
OCC(Cc1ccoc1)Nc1ncnc2[nH]ccc12 (stereo not shown) [AVI-3705] | 64
O=C(O)C(F)(F)F.OC[C@H]1CC2(CN1c1ncnc3[nH]ccc13)OCCO2 [AVI-3702] | 17
OCC(Cc1ccc(I)cc1)Nc1ncnc2[nH]ccc12 (stereo not shown) [AVI-3686] | < 10
CC1(C)CCC(CO)N(c2ncnc3[nH]ccc23)C1 (stereo not shown) [AVI-3726] | 76
OCC(CC1OCCO1)Nc1ncnc2[nH]ccc12 (stereo not shown) [AVI-3658] | 11
CC1CCN(C(=O)c2ccc3c(c2)nc(CO)n3C)CC1C(=O)O (stereo not shown) [AVI-348] | < 10
CCC(Nc1ncnc2[nH]ccc12)C(C)(C)O (stereo not shown) [AVI-3667] | 51
OCC1CC2(CCC2)CN1c1ncnc2[nH]ccc12 (stereo not shown) [AVI-3728] | 79
OCC(CC1CCC1)Nc1ncnc2[nH]ccc12 (stereo not shown) [AVI-3641] | 32
OCC1CC2(CCCCC2)CN1c1ncnc2[nH]ccc12 (stereo not shown) [AVI-3727] | 67
OC(c1ccccc1)C1CCCN1c1ncnc2[nH]ccc12 (stereo not shown) [AVI-3652] | 35
OCC(CC(F)(F)F)Nc1ncnc2[nH]ccc12 (stereo not shown) [AVI-3637] | 50
O=C(O)C(F)(F)F.OCC1(Nc2ncnc3[nH]ccc23)CC1 [AVI-3688] | 72
CN(C)CC(CO)Nc1ncnc2[nH]ccc12 (stereo not shown) [AVI-3671] | < 10
OCC(CC1CCCO1)Nc1ncnc2[nH]ccc12 (stereo not shown) [AVI-3660] | 18
OCC(Cc1cncs1)Nc1ncnc2[nH]ccc12 (stereo not shown) [AVI-3703] | 28

same assay, conditions: single dose concentration 200 μM (TS-FrankenROCS series)

SMILES | Average % competition [%]
CC1CCN(C(=O)c2ccc3c(c2)nc(CO)n3C)CC1C(=O)O (stereo not shown) [AVI-348] | <10

target: T1, SARS-CoV-2 NSP3 macrodomain (Mac1); assay: not given; format: binding; settings: crystal soak 10 mM; TFA/DMSO background map

SMILES | PanDDA run, TFA/DMSO background map: 1-BDC | PanDDA run, TFA/DMSO background map: Hit
OCC(Cc1ccoc1)Nc1ncnc2[nH]ccc12 (stereo not shown) [AVI-3705] | 0.14 | TRUE
O=C(O)C(F)(F)F.OC[C@H]1CC2(CN1c1ncnc3[nH]ccc13)OCCO2 [AVI-3702] | 0.13 | TRUE
OCC(Cc1ccc(I)cc1)Nc1ncnc2[nH]ccc12 (stereo not shown) [AVI-3686] | 0.19 | TRUE
CCC(Nc1ncnc2[nH]ccc12)C(C)(C)O (stereo not shown) [AVI-3667] | 0.07 | TRUE
OCC1CC2(CCC2)CN1c1ncnc2[nH]ccc12 (stereo not shown) [AVI-3728] | 0.26 | TRUE
OCC(CC1CCC1)Nc1ncnc2[nH]ccc12 (stereo not shown) [AVI-3641] | 0.11 | TRUE
OCC1CC2(CCCCC2)CN1c1ncnc2[nH]ccc12 (stereo not shown) [AVI-3727] | 0.25 | TRUE
OC(c1ccccc1)C1CCCN1c1ncnc2[nH]ccc12 (stereo not shown) [AVI-3652] | 0.16 | TRUE
OCC(CC(F)(F)F)Nc1ncnc2[nH]ccc12 (stereo not shown) [AVI-3637] | 0.21 | TRUE
O=C(O)C(F)(F)F.OCC1(Nc2ncnc3[nH]ccc23)CC1 [AVI-3688] | 0.17 | TRUE
CN(C)CC(CO)Nc1ncnc2[nH]ccc12 (stereo not shown) [AVI-3671] | 0.13 | TRUE
OCC(CC1CCCO1)Nc1ncnc2[nH]ccc12 (stereo not shown) [AVI-3660] | 0.17 | TRUE
OCC(Cc1cncs1)Nc1ncnc2[nH]ccc12 (stereo not shown) [AVI-3703] | 0.1 | TRUE

same assay, conditions: ligand modeling, Mac1 crystal soak

SMILES | Number of isomers bound
OCC(Nc1ncnc2[nH]ccc12)C1CCc2ccccc21 (stereo not shown) [AVI-3693] | 2
OCC1COCCN1c1ncnc2[nH]ccc12 (stereo not shown) [AVI-3717] | 2
OCC(Cc1ccoc1)Nc1ncnc2[nH]ccc12 (stereo not shown) [AVI-3705] | 1
O=C(O)C(F)(F)F.OC[C@H]1CC2(CN1c1ncnc3[nH]ccc13)OCCO2 [AVI-3702] | 1
OCC(Cc1ccc(I)cc1)Nc1ncnc2[nH]ccc12 (stereo not shown) [AVI-3686] | 2
CC1(C)CCC(CO)N(c2ncnc3[nH]ccc23)C1 (stereo not shown) [AVI-3726] | 2
OCC(CC1OCCO1)Nc1ncnc2[nH]ccc12 (stereo not shown) [AVI-3658] | 1
CC1CCN(C(=O)c2ccc3c(c2)nc(CO)n3C)CC1C(=O)O (stereo not shown) [AVI-348] | 1
CCC(Nc1ncnc2[nH]ccc12)C(C)(C)O (stereo not shown) [AVI-3667] | 1
OCC1CC2(CCC2)CN1c1ncnc2[nH]ccc12 (stereo not shown) [AVI-3728] | 1
OCC(CC1CCC1)Nc1ncnc2[nH]ccc12 (stereo not shown) [AVI-3641] | 1
OCC1CC2(CCCCC2)CN1c1ncnc2[nH]ccc12 (stereo not shown) [AVI-3727] | 1
OC(c1ccccc1)C1CCCN1c1ncnc2[nH]ccc12 (stereo not shown) [AVI-3652] | 1
OCC(CC(F)(F)F)Nc1ncnc2[nH]ccc12 (stereo not shown) [AVI-3637] | 1
O=C(O)C(F)(F)F.OCC1(Nc2ncnc3[nH]ccc23)CC1 [AVI-3688] | 1
CN(C)CC(CO)Nc1ncnc2[nH]ccc12 (stereo not shown) [AVI-3671] | 1
OCC(CC1CCCO1)Nc1ncnc2[nH]ccc12 (stereo not shown) [AVI-3660] | 1
OCC(Cc1cncs1)Nc1ncnc2[nH]ccc12 (stereo not shown) [AVI-3703] | 1

same assay, conditions: stereoisomer(s) modeled as bound, residues 201/202/203

SMILES | Isomers modeled
OCC(Nc1ncnc2[nH]ccc12)C1CCc2ccccc21 (stereo not shown) [AVI-3693] | RR,SR
OCC1COCCN1c1ncnc2[nH]ccc12 (stereo not shown) [AVI-3717] | R,S
OCC(Cc1ccc(I)cc1)Nc1ncnc2[nH]ccc12 (stereo not shown) [AVI-3686] | S,R
CC1(C)CCC(CO)N(c2ncnc3[nH]ccc23)C1 (stereo not shown) [AVI-3726] | R,R,S
OCC1CC2(CCC2)CN1c1ncnc2[nH]ccc12 (stereo not shown) [AVI-3728] | S,S
